US7745493B2, “Methods of treating tardive dyskinesia and other movement disorders” (priority 1998, dated 2010)

Key:
Assay type in all cases: in vivo, human
[1] = tested on: person one with long-standing TD; test: Case Report 2: two-sentence memory task; conditions: Case 2; on acamprosate 666 mg three times daily plus memantine
Experimental: The patient was placed on a treatment regime that included administration of 666 mg of acamprosate, three times daily. In this case, acamprosate was added to the patient's regimen, which continued to include memantine. […] Despite past evidence from formal testing that the patient had impaired short-term memory, they performed normally on a two-sentence memory task, which involved testing the patient's recall ability using two sentences containing 13 separate details. On the two-sentence memory task, within three attempts the patient was able to recall 9 details and, using a multiple choice format, was able to recall a total of 11 details. Recall of 9 details on the third attempt would be normal for a middle-aged adult, let alone one […].

[2] = tested on: person two with long-standing TD; test: Rey Auditory-Verbal Learning Test 15-items (Case 1); conditions: ON drug
Experimental: On acamprosate, the patient was able to sustain concentration for prolonged periods. […] The patient's cognitive improvement was also assessed using formal neuropsychological measures. The patient was tested while on the drug, then taken off of the drug and tested two days later. On the drug, the patient was able to recall 13 of the 15 items after a short delay as well as 13 of the 15 items after a long delay, as measured by the Rey Auditory Verbal Learning Test. This was in comparison to the patient's ability while off the drug to recall only 7 of the 15 items after a short delay as well as 8 of the items after a long delay in tests performed. In addition, the patient was able to recognize all 15 of the items while on acamprosate but while off the drug (and while having been off of memantine for over 2 months) the patient could only recognize 10 of the items. The order of testing would give the advantage of familiarity to the off-drug condition. Nonetheless, the difference in favor of the on-drug condition was substantial.
(§1) The following tables report on the results of the neuropsychological tests (Drug I is memantine and Drug II is acamprosate): […]

[3] = tested on: person two with long-standing TD; test: CPT with conditions (Vigilance) (Case 1); conditions: ON drug
Source text: as §1

[4] = tested on: person with extremely severe tardive dyskinesia and dystonia; test: Case Report 4: patient self-report of TD treatment effects (weekly log); conditions: for Memory: Memory and concentration / Well-being: General well being: 10 is best; for Side effects: 10 is none; for Balance: Difficulty maintaining balance / Face/tongue: Severity of face and tongue movements / Sweating / Trunk: Severity of trunk movements: 10 is worst
Source text: A person had extremely severe tardive dyskinesia and dystonia, as a result of over 15 years of treatment of bipolar disorder with lithium and an assortment of neuroleptics. Their involuntary movements consisted of forced extension of the trunk, torsion of the lower legs, plantar flexion of the left foot, chorea of both arms, writhing of the tongue and grimacing. In addition, they had profuse sweating associated with the involuntary movements. To sit still in a chair, they had to forcefully grip both arms. In the chair, forced extension of the trunk practically lifted them out of the chair. Their trunk and leg movements led to impaired balance, with a staggering gait and frequent near-falls. The continual severe movements were associated with impairment in concentration, which made their work less efficient. By virtue of talent and intelligence, however, they were able to work competitively as a software engineer. Because their bipolar disorder remained an active problem, continued neurolepric treatment was necessary to maintain their mental health. They were maintained on lithium carbonate 300 mg three times a day, and risperidone 4 mg per day.
Their movement disorder had been treated with benzodiazepines, anticholinergics, and dopamine agonists, all without meaningful benefit. They were then treated with acamprosate, first at a dosage of 333 mg three times a day, and then at a dosage of 666 mg three times a day. Acamprosate therapy was then augmented with magnesium sulfate, 300 mg three times a day.
The patient maintained a weekly log of symptoms, which is reproduced here as Table 4. […] For several of their symptoms—trunk movement, balance, and sweating 666 mg of acamprosate three times a day of acamprosate was more efficacious than 333 mg three • 2) The addition of magnesium was associated with further improvement in several symptoms, i.e., movements of the face and tongue, neck and limbs; • 3) Benefits of acamprosate increased with continued therapy; • 4) Mental function, as indicated by subjective memory, improved along with the involuntary movements; • 5) The addition of memantine aggravated the involuntary movements.

[5] = tested on: patients with dyskinetic movements (TD, tics); test: Inventor's overall clinical experience, cases 1-6
Source text: The ratio of acamprosate to magnesium can be varied to optimize the therapeutic synergy of the two ingredients. […] At typical therapeutic dosages of acetylhomotaurinate, the amount of magnesium is too low to have therapeutically-relevant effects on glutamate transmission. In my experience, I have had excellent therapeutic results from combining a 2 gram daily dosage of acamprosate with 1 gram of elemental magnesium, given as a salt or chelate. […] Allowing for variations in individual response, and variations in the intestinal absorption of both acamprosate and magnesium, I assert that the optimal ratio of mg:acetylhomotaurinate for an individual patient will be somewhere between 1:6 and 1:1. […] Although magnesium N-acetylhomotaurinate may be slightly more efficacious than calcium N-acetylhomotaurinate for treatment of tic disorders, in the present application we are effectively increasing the magnesium content of acamprosate and related compounds by administering magnesium ion (as a salt or chelate) in combination with a salt of N-acetylhomotaurinate, because there is a significant benefit to administering a higher ratio of magnesium to acamprosate than is present in the magnesium salt of acamprosate.
Relief of symptoms began within 48 hours of administration of acamprosate, and, if a patient discontinued acamprosate, symptoms returned immediately. […]

[6] = of 15 items, higher score better
[7] = week 1, regimen 1: 333 mg three times a day
[8] = week 2, regimen 2: 666 mg three times a day

CC(=O)NCCCS(=O)(=O)O [acamprosate, calcium N-acetylhomotaurinate]
details recalled within three attempts (of 13 details) [1]: 9 | total details recalled using multiple choice format (of 13 details) [1]: 11 | RAVLT List A Trial 1 ([2]; higher score better): 10 | RAVLT List A Trial 5 ([2]; higher score better): 14 | RAVLT List B ([2]; higher score better): 8 | Rey Auditory Verbal Learning Test List A 1-5 total (75 max) ([2]; higher score better): 63 | RAVLT False Positive ([2]; lower score better): 1 | RAVLT Intrusions ([2]; lower score better): 0 | RAVLT Perseverations ([2]; lower score better): 5 | RAVLT Long-Delay Free Recall [2, 6]: 13 | RAVLT Recognition Hits [2, 6]: 15 | RAVLT Short-Delay Free Recall [2, 6]: 13 | CPT Correct ([3]; higher score better): 100/100 | CPT Commission errors ([3]; lower score better): 0 | CPT Omission errors ([3]; lower score better): 0 | CPT Wrong ([3]; lower score better): 3 | Limbs [4, 7]: 6 | Neck [4, 7]: 7 | Memory: Memory and concentration [4, 7]: 9 | Well-being: General well being [4, 7]: 8 | Side effects [4, 7]: 7 | Balance: Difficulty maintaining balance [4, 7]: 7 | Face/tongue: Severity of face and tongue movements [4, 7]: 5 | Sweating [4, 7]: 8 | Trunk: Severity of trunk movements [4, 7]: 8 | Limbs [4, 8]: 7 | Neck [4, 8]: 7 | Memory: Memory and concentration [4, 8]: 9 | Well-being: General well being [4, 8]: 8 | Side effects [4, 8]: 7 | Balance: Difficulty maintaining balance [4, 8]: 5 | Face/tongue: Severity of face and tongue movements [4, 8]: 7 | Sweating [4, 8]: 5 | Trunk: Severity of trunk movements [4, 8]: 6 | time to beginning of relief of symptoms [5]: ≤ 48 h
